Source: PubChem BioAssay AID2765 (Broad Institute, 2010)
Active and inactive are the calls of the source.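 Rule for the calls: active = half-maximal concentration for the rise in caspase light signal at or below ten times the top tested dose; inconclusive = flat fit between 30% and 70% activity, or unreliable curve fit; inactive = the rest.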

Tested on: MEF A1-2A-BIM cells, caspase 3/7 luminescence, 3 h
Test: inducers of caspase signal in A1-dependent MEFs – cell-based, luminescence, retest, A1 inhibitor project, dose response (AID 2765)

Compound | EC50
O=C1C2C3C=CC(CO)(O3)C2C(=O)N1c1ccc(-c2ccccc2)cc1 (stereo not drawn) | > 35 µM (inactive)
Cc1ccc(S(=O)(=O)CC#CCOC(=O)c2ccc([N+](=O)[O-])cc2)cc1 | > 35 µM (inactive)
C=CCn1c(SCc2ccc(F)cc2)nnc1-c1sc2nc(C)cc(C)c2c1N | > 35 µM (inactive)
CC(=O)n1nc2nc(C)cc(C)c2c1N | > 35 µM (inactive)
Cn1cnc([N+](=O)[O-])c1S(=O)(=O)c1cccc(Cl)c1 | > 35 µM (inactive)
Cc1cc(C)n(-c2nc(Nc3ccccc3C)nc(-n3nc(C)cc3C)n2)n1 | > 35 µM (inactive)
Cc1c(C(=O)O)cccc1N1C(=O)Nc2ccccc2N1O | > 35 µM (inactive)
COc1ccccc1C/C(N)=N/OC(=O)c1cccc([N+](=O)[O-])c1 | > 35 µM (inactive)
COc1cc2c3c([nH]c2cc1F)C(=O)NCC3 | > 35 µM (inactive)
CC(=O)Oc1ccccc1C(=O)Oc1ccccc1C(=O)O | > 35 µM (inactive)
O=C(CCC(=O)N1CCN(c2ccccc2F)CC1)N1CCN(c2ccccc2)CC1 | > 35 µM (inactive)
CCN1CCN(c2nc3ccccc3nc2NS(=O)(=O)c2ccc(NC(C)=O)cc2)CC1 | > 35 µM (inactive)
CC(C)N=c1scc(-c2ccco2)n1/N=C/c1ccc(O)c(O)c1 | > 35 µM (inactive)
Cc1ccc(CNC(=O)CCS(=O)(=O)c2ccc3c(c2)CC(C)N3C(=O)C2CC2)o1 (stereo not drawn) | > 35 µM (inactive)
CCN(CC)CCN(C(=O)c1cc2c(ccc3ccccc32)oc1=O)c1nc2cc3c(cc2s1)OCCO3 | 8.31 µM
O=C(/C=C/c1ccccc1)Nc1cccnc1 | > 35 µM (inactive)
CN(C)CC#CCCCCCCC#CCN(C)C | > 35 µM (inactive)
CCc1ccccc1NC(=O)C(CC)Sc1nc2cc3c(cc2c(=O)n1Cc1ccco1)OCO3 (stereo not drawn) | > 35 µM (inactive)
CC(C)N(C(=O)CSc1ccc(S(=O)(=O)N2CCCCC2)cn1)C(C)C | > 35 µM (inactive)
O=C(O)CCN1C(=O)/C(=C\c2ccncc2)SC1=S | > 35 µM (inactive)
COc1ccc(C(=O)N/C(=C/c2cccs2)C(=O)NN)cc1OC | > 35 µM (inactive)
COC(=O)c1ccc(NC(=O)C2CC(=O)N(c3ccc(C)cc3)C2)cc1 (stereo not drawn) | > 35 µM (inactive)
CC(=O)Nc1ccc(SC[C@H](Cc2ccccc2)N2CC[C@@H](C(C)(C)C)CCC2=O)cc1 | > 35 µM (inactive)
CNC(=S)NC1(C)CCS(=O)(=O)C1 (stereo not drawn) | > 35 µM (inactive)

Compound | EC50
Cc1ccc(NC(=O)c2cc(N3C(=O)C=CC3=O)ccc2N2CCOCC2)cc1Cl | > 35 µM (inactive)
CCOC(=O)/C(=C\c1ccc(OC)c(OC)c1)C(=O)c1cccnc1 | > 35 µM (inactive)
CC(=O)Nc1ccc(NC(=O)c2cc(C)nn2-c2ccccc2)cc1 | > 35 µM (inactive)
Cn1c2ccccc2c2cnn(CC(=O)NCCCN3CCN(c4ccccc4F)CC3)c(=O)c21 | > 35 µM (inactive)
CCCc1ccc(OCc2ccc(C(=O)N/N=C/c3cccc([N+](=O)[O-])c3)o2)c(OC)c1 | 7.22 µM
COc1ccc(CCNCC(C)c2ccccc2)cc1 (stereo not drawn) | > 35 µM (inactive)
O=C(CN(C(=O)CCC(=O)Nc1nccs1)c1cccc(F)c1)NCc1ccccc1 | > 35 µM (inactive)
COc1ccc(-c2ccc3c(c2)S(=O)(=O)c2cccc(C(=O)NC[C@@H]4CCCO4)c2C3=O)cc1OC | > 35 µM (inactive)
CC(=O)Nc1ccc(/C(C)=N/Nc2nc(Nc3ccccc3)nc(N3CCOCC3)n2)cc1 | > 35 µM (inactive)
Oc1cc2c(cc1CN1CCN(c3ncccn3)CC1)OCO2 | > 35 µM (inactive)
Cc1cc(C)cc(COn2ccnc2)c1 | > 35 µM (inactive)
CC(=O)Nc1ncnc2c1c(-c1ccc(Cl)cc1)nn2C(C)(C)C | > 35 µM (inactive)
COCc1cc(C)nc(SCC(=O)Nc2nc(C)cs2)c1C#N | > 35 µM (inactive)
CCOC(=O)CS(=O)(=O)c1nc(-c2ccccc2)cc(C(F)(F)F)n1 | > 35 µM (inactive)
Cc1cccc(-n2c(Cc3ccccc3)n[nH]c2=S)c1 | > 35 µM (inactive)
COc1ccc(CC(=O)Nc2ccc3c(c2)CCC3)cc1S(=O)(=O)N1CCOCC1 | > 35 µM (inactive)
COc1ccc(NC(=O)c2ccco2)c(NC(=O)c2ccc([N+](=O)[O-])cc2)c1 | > 35 µM (inactive)
COc1cc(/C=C2/C(=N)N3C=CSC3=NC2=O)ccc1OCCCOc1cc(C)ccc1C | 7.28 µM
CC(C)(C)c1ccc(C(=O)Nc2ccc(O)c3c(=O)cc(-c4cccc(Cl)c4)oc23)cc1 | > 35 µM (inactive)
Cc1ccc2nc(N(CCCN(C)C)C(=O)c3ccc(S(=O)(=O)N4CCc5ccccc5C4)cc3)sc2c1 | > 35 µM (inactive)
Cc1cccc(NC(=O)/C(C#N)=C/c2cn(CC(=O)NCc3ccco3)c3ccccc23)c1 | 21.7 µM
Cc1c(C(=O)NCCN2C(=O)S/C(=C\c3cccs3)C2=O)cccc1[N+](=O)[O-] | > 35 µM (inactive)
Cc1ccc(OC(=O)C2CCN(C(=O)c3ccccc3C)CC2)c(Br)c1 | > 35 µM (inactive)
Cc1c(Nc2nc3ccccc3nc2NS(=O)(=O)c2cccc(Cl)c2)c(=O)n(-c2ccccc2)n1C | > 35 µM (inactive)

Compound | EC50
CN(Cc1cnc2nc(N)nc(N)c2n1)c1ccc(C(=O)N[C@@H](CCC(=O)O)C(=O)O)cc1 | > 35 µM (inactive)
O=C(NCCCN1CCCCC1)c1ccc2c(c1)NC(=O)c1ccccc1S2 | > 35 µM (inactive)
COc1ccc(CNC(=O)Cc2cccs2)cc1OC | > 35 µM (inactive)
Cn1cccc1C(=O)NC(=O)COC(=O)c1ccc(S(C)(=O)=O)cc1 | > 35 µM (inactive)
Cc1nn(Cc2c(Cl)cccc2Cl)c(C)c1NC(=O)c1cn(-c2ccccc2)nc1-c1ccccc1 | 15.1 µM
CSc1cccc(NS(=O)(=O)c2cn(C)cn2)c1 | > 35 µM (inactive)
CNC(C)C(=O)NC(C(=O)N1CCCC1C(=O)NC1CCCc2ccccc21)C(C)C (stereo not drawn) | > 35 µM (inactive)
COc1ccc(C(=O)NCc2nnc(SCC(=O)NCc3ccco3)o2)cc1OC | > 35 µM (inactive)
O=C(COc1ccccc1[N+](=O)[O-])Nc1ccc(NC(=O)c2cc3ccccc3o2)cc1 | 27.4 µM
COC(=O)C(CO)Nc1ncnc2onc(-c3ccc(F)cc3)c12 (stereo not drawn) | > 35 µM (inactive)
O=C(Nc1nc2c(Br)cc(Br)cc2c(=O)s1)c1ccco1 | > 35 µM (inactive)
Cc1cccc(NC(=S)NC2CCCC2)c1C | > 35 µM (inactive)
C=C1C(O)[C@@H]2O[C@]3(CC[C@H](/C=C/C(C)[C@@H]4CC(C)=CC5(O[C@H](C[C@@](C)(O)CO)CCC5O)O4)O3)CC[C@H]2O[C@@H]1C(O)CC(C)[C@H]1OC2(CCCCO2)CCC1C (stereo partly drawn) | > 35 µM (inactive)
COC(=O)C1=C(C(=O)OC)[C@@H]2N(C)c3ccc(OC)cc3[C@@]23C[C@@H](C(=O)OC)N(C(=O)c2ccco2)C3=N1 | > 35 µM (inactive)
CC(C)(C)OC(=O)NCCc1nnc(S(=O)(=O)Cc2ccc(Cl)cc2Cl)o1 | > 35 µM (inactive)
COc1ccc(N2CCN(C(=O)C3CCN(C(=O)c4ccc([N+](=O)[O-])cc4)CC3)CC2)cc1 | > 35 µM (inactive)
Cc1ccccc1[C@]1(C)ON(c2ccccc2C(F)(F)F)C1=O | > 35 µM (inactive)
COc1ccc(NS(=O)(=O)c2cc(NC(=O)c3ccc(Cl)cc3)ccc2N2CCOCC2)cc1 | > 35 µM (inactive)
COc1ccc(-c2csc(NC(=O)Cc3ccccc3F)n2)c(OC)c1 | > 35 µM (inactive)
Cc1ccc(C)c(N(C)C(=O)c2ccc3c(=O)n4c(nc3c2)CCCCC4)c1 | > 35 µM (inactive)
CCOc1ccc(N2C(=O)CN=C2Nc2ccccc2F)cc1 | > 35 µM (inactive)
CC(C)(C)C1CCc2onc(C(=O)Nc3cccc(O)c3)c2C1 (stereo not drawn) | > 35 µM (inactive)
Cc1cccc(C)c1NC(=O)CS(=O)CC(=O)N1CCN(c2ccccc2)CC1 (stereo not drawn) | > 35 µM (inactive)
CC[C@H]1CN2CCc3cc(OC)c(OC)cc3[C@@H]2C[C@@H]1C[C@H]1NCCc2cc(OC)c(OC)cc21 | > 35 µM (inactive)

Compound | EC50
CC(C)CCN(C(=O)Cc1ccc(Cl)c(Cl)c1)c1c(N)n(Cc2ccccc2)c(=O)[nH]c1=O | 12 µM
O=C(NCc1ccccc1)c1ccc(C(=O)N(C2CCCCC2)C2CCCCC2)cc1 | > 35 µM (inactive)
CCOC(=O)CN1C(=O)CC(c2ccc([N+](=O)[O-])cc2)C1=O (stereo not drawn) | > 35 µM (inactive)
CCOCCCNC(=O)c1ccc2c(c1)N=C(CC)c1cc(Br)ccc1S2 | > 35 µM (inactive)
O=C(CN1C(=O)COc2ccccc21)NCCCN1CCc2ccccc2C1 | > 35 µM (inactive)
CC(=O)Nc1ccc(S(=O)(=O)NCCc2ccccn2)cc1 | > 35 µM (inactive)
CN(C(=O)CSc1ccncc1)C1CCCN(Cc2ccccc2F)C1 (stereo not drawn) | > 35 µM (inactive)
O=C(/C=C/c1ccc(Cl)cc1)c1ccc([N+](=O)[O-])o1 | > 35 µM (inactive)
CC(NC(=O)c1cccc(OC2CCN(C3CCN(C)CC3)CC2)c1)c1ccccc1 (stereo not drawn) | > 35 µM (inactive)
COc1cc(CN2CCNC(=O)C2CC(=O)N(C)CCCN2CCOCC2)cc(OC)c1 (stereo not drawn) | > 35 µM (inactive)
O=C(N=Nc1c(O)[nH]c2ccc([N+](=O)[O-])cc12)c1cc(-c2ccccc2Cl)nc2ccccc12 | > 35 µM (inactive)
O=C(CCNc1n[nH]c(=O)[nH]c1=O)N/N=C/c1ccc(C(F)(F)F)cc1 | > 35 µM (inactive)
COc1ccccc1CNC(=O)COc1ccc([N+](=O)[O-])cc1 | > 35 µM (inactive)
O=C(N/C=N/OCc1ccc(Cl)cc1Cl)NOCc1ncc(C(F)(F)F)cc1Cl | > 35 µM (inactive)
Clc1ccc(C2=CC(c3ccco3)n3ncnc3N2)cc1 (stereo not drawn) | > 35 µM (inactive)
NC(=O)OCCCc1ccccc1 | > 35 µM (inactive)
CN(c1ccccc1)c1ccc(/C=C/[N+](=O)[O-])cc1 | 12.6 µM
COc1ccccc1-c1cc(C(F)(F)F)nc(S(=O)(=O)CCCC(=O)N2CCOCC2)n1 | 28.7 µM
O=C(NCCc1ccccc1)C(c1cccs1)N(C(=O)CCl)c1ccc(Cl)cc1 (stereo not drawn) | 7.95 µM
COC(=O)C(C)Oc1cc(OC(C)C(=O)OC)c2c(-c3ccccc3)cc(=O)oc2c1 (stereo not drawn) | > 35 µM (inactive)
COc1ccc(NS(=O)(=O)c2cccc(C(=O)OCC(=O)c3c(N)n(C)c(=O)n(C)c3=O)c2)cc1 | > 35 µM (inactive)
